Measured values taken from a melting point compilation (Tetko et al.; mined from patent text by program, amines drawn as free bases though some values may be those of a salt).

| melting point [°C] | Structure (SMILES) |
| --- | --- |
| 197 to 199 | CON=Cc1ccc2c(c1)ncn2-c1cccc(-n2ccnc2)c1 |
| 194 | CCOCCNc1nc(C)c(CCO)c(=O)n1C |
| 160 to 162 | COCCN1CCC(c2ccc(C(=O)NC3(C(=O)NCC#N)CCCCC3)cc2)CC1 |
| 139 to 140 | CCOC(=O)C(C)n1cc(-c2ccc(Oc3ccccc3)cc2)c2c(N)ncnc21 (configuration not stated) |
| 165 to 178 | c1csc(-c2ccc(-c3cc4ncnc(Nc5ccc6[nH]ccc6c5)c4s3)cc2)c1 |
| 90 to 92 | CCCCOC(=O)CNC(=O)c1nc2ccc(OC)cc2cc1OCc1ccccc1 |
| 293 to 295 | Cc1c(C)c2c(c(C)c1NC(=O)c1ccc(Cl)cc1)C(c1ccc(C(C)C)cc1)C1(CCN(C)CC1)O2 (configuration not stated) |
| 95 to 98 | O=C(O)C(O)Cc1ccccc1[N+](=O)[O-] (configuration not stated) |
| 63 | NC(=O)Oc1ccccc1CCCCC#CCSCC#CCCCCc1ccccc1OC(N)=O |
| 136 to 139 | CCOC(=O)C(=O)Nc1ccc(NS(C)(=O)=O)cc1 |
| 110 to 113 | CNS(=O)(=O)OCC(COc1ccccc1OC)OS(N)(=O)=O (configuration not stated) |
| 142 to 143 | CC(C)c1ccc(C(=O)C(c2ccccc2)C2CCCC2)c(C(C)C)c1OS(N)(=O)=O (configuration not stated) |
| 269 to 271 | CC(=O)N1CCN(c2cc3c(c(N)c2F)c(=O)c(C(=O)O)cn3C2CC2)CC1C (configuration not stated) |
| 50 | CCOC(=O)C1CSC(COc2ccccc2OC)N1 (configuration not stated) |
| 206 to 208 | CC(C(=O)O)c1ccc2sc3ncccc3c(=O)c2c1 (configuration not stated) |
| 128 to 130 | CCOC(=O)C1Cc2c([nH]c3ccc(C)cc23)C(c2ccccc2)N1 (configuration not stated) |
| 117 | CS(=O)(=O)c1ccc(-c2cc(CCO[N+](=O)[O-])nn2C2CCCCC2)cc1 |
| 59 to 62 | CN(C)CCCNc1ncc2c(n1)-c1ccccc1C(c1ccc(Cl)c(Cl)c1)C2 (configuration not stated) |
| > 200 | Cc1ncc2ccc(-c3ccc(F)cc3)nc2n1 |
| 140 to 141 | COc1ccc(C2=NN(c3ccc(Cl)cc3)C(=O)[C@H]3CC=CC[C@@H]23)cc1OC (relative stereo) |
| 88 to 89 | Cc1csc(C)c1N(Cn1cccn1)C(=O)CCl |
| 139 to 140 | COC(=O)COc1cccc2c(CNC(C)=O)coc12 |

| melting point [°C] | Structure (SMILES) |
| --- | --- |
| 148 to 153 | CN1CCC(=O)C(=C2SC=CS2)C1=O |
| 180 | CCOC(=O)Cc1cc(-c2ccccc2)nc2ccccc12 |
| 130 | CC(O)C(O)Cc1cc(C(N)=O)ccc1C(N)=O (configuration not stated) |
| > 250 | CC1COc2c(Br)c(F)cc3c(=O)c(C(=O)O)cn1c23 (configuration not stated) |
| 72 to 73 | CCOC(=O)C(Cc1cc2cccnc2n(-c2cccc([N+](=O)[O-])c2)c1=O)C(=O)c1ccncc1 (configuration not stated) |
| 88.2 to 89.2 | O=Cc1cc(Br)ccc1N1CC=CC1 |
| 183 to 185 | CC1(C)CCC(C)(C)c2cc(-c3cc(-c4ccc(C(=O)O)cc4O)ccc3-c3ccccc3)ccc21 |
| 126 to 128 | CCOC(=O)C(C#N)=Cc1c(Cl)n(Cc2ccc(OC)cc2)c2ccccc12 |
| 124 to 126 | CCN1CCC(=O)N(c2c(C)cccc2C)C1=S |
| 76 to 77 | CCCc1ncc2cc(Cl)nc(OC)n12 |
| 203 to 205 | O=C1CCC(n2cnc(-c3ccc(F)cc3)c2-c2ccnc(OCCO)n2)CC1 |
| 131 to 132 | CN1C(=O)c2ccc(-c3ccc(Cl)cc3)cc2C1=O |
| 126 to 128 | COC(=O)c1nc(-c2ccc(Cl)c(OC)c2F)nc(N)c1C#C[Si](C)(C)C |
| 118 to 119 | CCC(=O)Nc1c(C(O)(C(F)(F)F)C(F)(F)F)ccc2ccccc12 |
| 112 to 114 | O=C(CCCCCNC(=O)[C@H](Cc1c[nH]c2ccccc12)NC(=O)Cc1ccc2ccccc2c1)NO |
| 110 | CSc1nc2ccnn2c(NCc2ccco2)c1C#N |
| 154 to 155 | CCOC(=O)C1=C(CC)NC(CC)=C(C(=O)OCC)C1c1ccccc1/C=C/C(=O)OC(C)(C)C |
| 114 | O=C(NCCCl)c1c(Cl)cccc1Cl |
| 200 to 202 | COCC1OC(n2cnc3c(N)nc(Cl)nc32)C(O)C1O (configuration not stated) |
| 106 to 108 | CC(=NOCCc1ccc(C)cc1)C(=O)O |
| 166 to 168 | CC(=O)N(C(=O)N1CC(c2ccc(Cl)cc2)C(c2ccc(Cl)cc2)=N1)c1ccc(C(F)(F)F)cc1 (configuration not stated) |
| 40 to 42 | CC1Cc2ccccc2P1c1ccccc1P(c1ccccc1)c1ccccc1 (single isomer, unassigned; (+)) |

| melting point [°C] | Structure (SMILES) |
| --- | --- |
| 152 to 154 | CC1(C)COC(c2ccc3c(c2-c2c(C4=NC(C)(C)CO4)ccc4c2OCO4)OCO3)=N1 |
| 86 to 87 | CCOC(=O)CCc1c(OCc2ccc(OCc3nc(-c4ccccc4)oc3C)cc2)ccc2ccccc12 |
| 168 to 169 | COc1ccc(NC(=O)c2cccc(OC)c2N)cc1 |
| 186 to 187 | CC(C)(C)OC(=O)N[C@H](CC(=O)OCc1ccccc1)C(=O)N[C@H](CO)C(C)(C)C |
| 193 to 194 | CC(Cl)CNc1cccc(C(N)=O)c1 (configuration not stated) |
| 196 to 198 | Cc1nc(-c2ccc(C(=O)N3Cc4cccnc4Nc4ccccc43)c(Cl)c2)n[nH]1 |
| 132 to 133 | CCCNC(=O)C1(CCC)c2ccccc2Sc2ccccc21 |
| 126 to 127 | Cc1cccc(-c2ccnc3ccnn23)n1 |
| 133 to 134 | COc1ccc(Cl)cc1-n1cc[nH]c1=O |
| 243 | N#Cc1ccc(-c2ccc(C#N)c(N)c2)cc1N |
| 68 to 74 | CCN(CC)C(=O)n1cnc(S(=O)(=O)CC2CC2)n1 |
| 130 | CCNC(=O)Oc1cccc(CCNC(=O)/C=C/c2cccnc2)c1 |
| 55 to 63 | CC(C)C[C@@H](C(=O)N1CCN(C(c2ccc(F)cc2)c2ccc(F)cc2)CC1)N1CCOCC1 |
| 103 to 105 | COc1ccc(C(C#Cc2cnc(N)nc2)Cc2nc(C)co2)cc1OC1CCCC1 (racemic) |
| 117 to 118 | CC1CCN2C(=O)c3ccccc3NC(=O)C12 (configuration not stated) |
| 217 to 220 | Nc1cc(Sc2cccc3cnccc23)c(F)cc1[N+](=O)[O-] |
| 102 to 105 | O=C1CCC(c2c[nH]c3cc(F)ccc23)CC1 |
| 169 to 171 | CCCNC(=O)C(C)NC(=O)C(NC(=O)OCc1ccccc1)C(Cc1ccccc1)C(=O)O (configuration not stated) |
| 127 to 129 | CSC1C(=O)Nc2c(OCc3ccccc3)cccc21 (configuration not stated) |
| 125 to 126 | CCOc1nn(-c2ccc(C(F)(F)F)cn2)cc1CCCOc1cc(CC(=O)O)cc(OC)c1 |
| 154 | COC(=O)C1=NNC(C)=C(C(=O)OC)C1c1ccc(OC)cc1 (configuration not stated) |

| Structure (SMILES) | melting point [°C] |
| --- | --- |
| CC(Cc1ccc(C2OC(N)=NC2=O)cc1)NCC(O)c1cccc(C(F)(F)F)c1 (configuration not stated) | 152 to 164 |
| N#CC1CC2CCC(C1)N2Cc1ccccc1 (configuration not stated) | 119 to 120 |
| CCN(C(C)=O)c1cccc(-c2ccnc3c(C(=O)c4ccccc4)cnn23)c1 | 158 to 160 |
| FC(F)(F)C1(c2cc(Cl)cc(Cl)c2)CC(c2ccc(-c3cn[nH]c3)c3ccccc23)=NO1 (configuration not stated) | 117 to 120 |
| CC(=O)C1C(=O)N(CC2CC2)C(=O)N(c2ccccc2)C1=O (configuration not stated) | 91 to 95 |
| N#CC(N)(N)c1cccnc1 | 158 |
| COC(=O)C(C)N(C(=O)CF)c1c(C)cccc1Cl (configuration not stated) | 101 to 103 |
